Like-named read-outs stand apart in the source and are kept apart here. Blank lines part the entries; values can stand above or below the molecule they belong to.
How the values were obtained:
[1] = Physical (solid-state) stability, XRPD; assay type: physicochemical; details: for tendency to crystallize in the presence of pre-existing crystalline voxilaprevir: spiked SOF/VEL SSD/VOX SSD tablets
Procedure: As described previously, Form VIII of voxilaprevir is characterized by an X-ray powder diffractogram comprising the following peaks (±0.2°): at 7.8, 8.2, and 20.2°2θ, as determined on a diffractometer using Cu-Kα radiation.
Voxilaprevir SSD is hygroscopic, with a reversible weight gain of 11% when cycled between 0% and 90% RH at 25° C.
The impact of voxilaprevir SSD potency on the chemical and physical stability thereof was also evaluated (Table 5). This development study compared the properties of typical voxilaprevir SSD with 50% w/w voxilaprevir/50% w/w copovidone (Lot C) to those of sub-potent voxilaprevir SSD with 40% w/w voxilaprevir/60% w/w copovidone (Lot D) and super-potent voxilaprevir SSD with 60% w/w voxilaprevir/40% w/w copovidone (Lot E). Voxilaprevir SSD was packaged in a designated commercial packaging configuration (i.e., polyethylene bags sealed in aluminum bags with 5% w/w desiccant) and stored for 6 months at both 25° C./60% RH and 40° C./75% RH. […] All samples remained amorphous by XRPD throughout the duration of the study.
The impact of reprocessed voxilaprevir SSD on the chemical and physical stability of voxilaprevir SSD was additionally evaluated. Voxilaprevir was reprocessed (re-dissolved, spray-dried, and secondary dried) twice and packaged in a designated commercial packaging configuration (i.e., polyethylene bags sealed in aluminum bags with 5% w/w desiccant) and stored for 6 months at both 25° C./60% RH and 40° C./75% RH. […] All samples remained amorphous by XRPD throughout the duration of the study.
In some embodiments, the film-coated tablets were packaged in 75 and 100 mL white HDPE bottles (Lots A and B, respectively, as described in Tables 11A, 11B) with 1 g silica gel desiccant canisters and a polyester fiber coil. The 75 and 100 mL HDPE bottles contained fourteen and twenty eight tablets, respectively. […] The packaged tablets (14 and 28 counts) were evaluated for stability at 40° C./75% RH and 25° C./60% RH. Additionally, the 14-count bottles (without cap) were evaluated for stability under open conditions at 40° C./75% RH. […]

[2] = Relative bioavailability study of voxilaprevir amorphous free acid tablets vs Form VI tablets in healthy subjects (fasted, fed); assay type: in vivo, human; details: for AUC(0-inf) / Cmax: human, in vivo, oral, 100 mg
Source text: Accordingly, a spray dried dispersion of voxilaprevir in the amorphous free acid form was selected for incorporation into the tablet formulation.

[3] = BCS classification; assay type: physicochemical
[4] = Tablet dissolution in 50 mM sodium acetate buffer pH 5.0 with 2.0% w/v Polysorbate 80 and 0.001% w/v BHT, 75 rpm, 900 mL, 37° C., USP Type II; assay type: physicochemical; details: tablets containing voxilaprevir SSD
Procedure: FIGS. 10-12 depict additional dissolution profiles for the sofosbuvir/velpatasvir SSD/voxilaprevir SSD tablets having the formulation described in Table 13 and which were used in phase 1, 2, and 3 clinical studies, where the dissolution testing was conducted at pH 5.0 acetate buffer containing 2.0% w/v polysorbate 80. Four batches of the sofosbuvir/velpatasvir SSD/voxilaprevir SSD tablets were tested, with Batch A manufactured at 100 kg and Batches B, C and D manufactured at 145 kg. All other aspects of the formulation and manufacturing process were otherwise equivalent. The four batches were packed in the same commercial configuration: 28 count, 100 mL HPDE bottle with 1 g silica gel desiccant canister and a polyester fiber coil. […] Moreover, for Batch A, the amount dissolved at 30 min remained between 98 and 100% for sofosbuvir, between 90 and 92% for velpatasvir SSD, and between 89 and 93% for voxilaprevir SSD. […] For Batch D, the amount dissolved at 30 min remained at 100% for sofosbuvir, between 90 and 91% for velpatasvir SSD, and between 89 and 91% for voxilaprevir SSD. Release of velpatasvir SSD and voxilaprevir SSD from the sofosbuvir/velpatasvir SSD/voxilaprevir SSD tablets associated with all four Batches was complete after 60 minutes.

[5] = as above; assay type: physicochemical; details: for dissolution at 30 minutes: after 4 weeks open at 40° C./75% RH
[6] = Storage stability: appearance, assay/label strength (LS), total impurities/degradation products; assay type: physicochemical; details: all conditions
Procedure: In some embodiments, the film-coated tablets were packaged in 75 and 100 mL white HDPE bottles (Lots A and B, respectively, as described in Tables 11A, 11B) with 1 g silica gel desiccant canisters and a polyester fiber coil. The 75 and 100 mL HDPE bottles contained fourteen and twenty eight tablets, respectively. Each HDPE bottle was capped using a white, continuous thread, child-resistant polypropylene screw cap with an […], aluminum-faced line. The packaged tablets (14 and 28 counts) were evaluated for stability at 40° C./75% RH and 25° C./60% RH. Additionally, the 14-count bottles (without cap) were evaluated for stability under open conditions at 40° C./75% RH.
For each of the impact studies, the sofosbuvir/velpatasvir SSD/voxilaprevir SSD tablets were packaged in a designated commercial packaging configuration (28-count, 100 mL HPDE bottle, coil, 1 g desiccant), and stored for 12 weeks at 25° C./60% RH and 40° C./75% RH. Tablets were also packaged in open containers (28-count, 100 mL HPDE bottle without cap) and stored for 4 weeks at 40° C./75% RH and for 1 week at 50° C./92% RH.
The sofosbuvir/velpatasvir SSD/voxilaprevir SSD tablets were packaged in the designated commercial packaging configuration (28-count, 100 mL HPDE bottle, coil, 1 g desiccant), and stored for 6 months at 25° C./60% RH and 40° C./75% RH.

[7] = Photostability (light exposure, ICH Q1B); assay type: physicochemical; details: tablets film-coated to weight gains of 2.1 to 5.4%, ICH Q1B
Procedure: In some embodiments, and the Examples presented herein, the tablet formulation includes sofosbuvir having Form 6 and, optionally, a trace amount of Form 7.
Tablet cores and film-coated tablets were evaluated per ICH Q1B guidelines with a total of illumination of more than 1.2 million-lux hours and a total irradiance of more than 200 W·hr/m^2.

[8] = Tablet dissolution as a function of medium pH and composition (Apparatus II, 75 rpm, 900 mL, 37° C.); assay type: physicochemical; details: Formulation G tablets
[9] = Voxilaprevir Form VI single and multiple oral dose pharmacokinetics in healthy subjects; assay type: in vivo, human; details: for Cmax / half-life / Tmax / AUC / AUC(0-inf) / AUC(0-t): human, plasma; for Cmax / AUC / AUC(0-inf) / AUC(0-t): mean
Procedure: Pub. No. 2015/0175625 A1. Initial studies were conducted using the crystalline Form VI of voxilaprevir. As described previously, Form VI of voxilaprevir is characterized by an X-ray powder diffractogram comprising the following peaks (±0.2°): at 14.6, 15.4, and 20.0°2θ, as determined on a diffractometer using Cu-Kα radiation. Following single and multiple oral doses of voxilaprevir, Form VI, maximum plasma concentrations occurred between 2.0 and 5.0 hours (median tmax). […] Steady-state concentrations of voxilaprevir, Form VI were achieved after 7 days of once-daily dosing across all dose levels (Table 2).

[10] = 100 mg tablets, healthy subjects
[11] = Amorphous Free Acid 100 mg, healthy subjects, fed (with moderate food)
[12] = single dose 100 mg, healthy subjects, fasted (N = 15)

tendency to crystallize in the presence of pre-existing crystalline voxilaprevir [1]: no tendency to crystallize
higher Cmax compared to tablets (2×50 mg) comprising voxilaprevir, Form VI [2, 10]: ~43%
higher exposure (AUC) compared to tablets (2×50 mg) comprising voxilaprevir, Form VI [2, 10]: approximately 9%
AUC(0-inf) ([2]; Amorphous Free Acid 100 mg, healthy subjects, fasted (N = 15)): 367 ng·h/mL
AUC(0-inf) [2, 11]: 494 ng·h/mL
Cmax [2, 11]: 44.2 ng/mL
AUC(0-inf) [2, 12]: 367 ng·h/mL
Cmax [2, 12]: 32.7 ng/mL
Cmax Geometric Least Square Ratio, Amorphous Free Acid/Form VI GMR ([2]; single dose, fasted): 1.43
SMILES: CC[C@@H]1[C@@H]2CN(C(=O)[C@H](C(C)(C)C)NC(=O)O[C@@H]3C[C@H]3CCCCC(F)(F)c3nc4ccc(OC)cc4nc3O2)[C@@H]1C(=O)N[C@]1(C(=O)NS(=O)(=O)C2(C)CC2)C[C@H]1C(F)F [Amorphous Free Acid]

aqueous solubility, pH dependence [3]: pH-dependent solubility
released at 30 minutes [4]: 91%
dissolution at 30 minutes ([5]; SSD potency tablets Lot A): 85%
dissolution at 30 minutes ([5]; SSD potency tablets Lot B): 91%
dissolution at 30 minutes ([5]; SSD potency tablets Lots C and D): 92%
released at 30 minutes ([5]; spiked tablets containing 5% w/w voxilaprevir Form VIII or Form X): 84%
released at 30 minutes ([5]; spiked tablets containing 10% w/w voxilaprevir Form VIII or Form X): 80%
released at 30 minutes ([5]; spiked tablets containing 20% w/w voxilaprevir Form VIII or Form X): 73%
released at 30 minutes ([5]; tablets containing 0% w/w crystalline voxilaprevir): 91%
released at 30 minutes ([5]; tablets containing neat amorphous voxilaprevir free acid (physical mixture with copovidone)): 76%
total impurities/degradation products ([6]; desiccant/packaging study tablets, 6 months): 0.0%
total impurities/degradation products ([6]; tablet Lots A-D from sub-potent/super-potent VEL SSD and VOX SSD): 0.7%
total impurities/degradation products ([6]; tablets from VEL SSD with 6.0% residual ethanol and VOX SSD with 2.1% residual acetone): 0.0%
total impurities/degradation products ([6]; tablets from VEL SSD with 7.0% and VOX SSD with 3.2% water content): 0.0%
level of degradation products [7]: 0.0%
dissolution at 60 minutes in pH 4.0 and 5.0 containing 2.0% w/v polysorbate 80 [8]: complete dissolution
dissolution in pH 2.0, 4.5 and 6.8 buffers, FaSSIF and FeSSIF [8]: Incomplete dissolution
SMILES: CC[C@@H]1[C@@H]2CN(C(=O)[C@H](C(C)(C)C)NC(=O)O[C@@H]3C[C@H]3CCCCC(F)(F)c3nc4ccc(OC)cc4nc3O2)[C@@H]1C(=O)N[C@]1(C(=O)NS(=O)(=O)C2(C)CC2)C[C@H]1C(F)F [Voxilaprevir, (1aR,5S,8S,9S,10R,22aR)-5-tert-butyl-N-{(1R,2R)-2-(difluoromethyl)-1-[(1-methylcyclopropanesulfonyl)carbamoyl]cyclopropyl}-9-ethyl-18,18-difluoro-14-methoxy-3,6-dioxo-1,1a,3,4,5,6,9,10,18,19,20,21,22,22a-tetradecahydro-8H-7,10-methanocyclopropa[18,19][1,10,3,6]dioxadiazacyclononadecino[11,12-b]quinoxaline-8-carboxamide]

tendency to crystallize in the presence of pre-existing crystalline voxilaprevir [1]: no tendency to crystallize
SMILES: COC[C@H]1C[C@@H](c2ncc(-c3ccc4c(c3)COc3cc5c(ccc6nc([C@@H]7CC[C@H](C)N7C(=O)[C@@H](NC(=O)OC)C(C)C)[nH]c65)cc3-4)[nH]2)N(C(=O)[C@H](NC(=O)OC)c2ccccc2)C1 [amorphous velpatasvir free base]

physical stability of crystal form ([1]; converted to crystalline Form VIII): physically metastable
Cmax ([9]; oral, 30 mg, multiple dose 30 mg): 7.3 ng/mL
half-life ([9]; oral, 30 mg, multiple dose 30 mg, median): 41 h
Tmax ([9]; oral, 30 mg, multiple dose 30 mg, median, read-out: tmax): 5 h
Cmax ([9]; oral, 30 mg, single dose 30 mg): 3.7 ng/mL
half-life ([9]; oral, 30 mg, single dose 30 mg, median): 9.37 h
Tmax ([9]; oral, 30 mg, single dose 30 mg, median, read-out: tmax): 4 h
Cmax ([9]; oral, 100 mg, multiple dose 100 mg): 46 ng/mL
half-life ([9]; oral, 100 mg, multiple dose 100 mg, median): 30.5 h
Tmax ([9]; oral, 100 mg, multiple dose 100 mg, median, read-out: tmax): 5 h
Cmax ([9]; oral, 100 mg, single dose 100 mg): 17.6 ng/mL
half-life ([9]; oral, 100 mg, single dose 100 mg, median): 36.7 h
Tmax ([9]; oral, 100 mg, single dose 100 mg, median, read-out: tmax): 3 h
Cmax ([9]; oral, 300 mg, multiple dose 300 mg): 155 ng/mL
half-life ([9]; oral, 300 mg, multiple dose 300 mg, median): 27.6 h
Tmax ([9]; oral, 300 mg, multiple dose 300 mg, median, read-out: tmax): 5 h
Cmax ([9]; oral, 300 mg, single dose 300 mg): 34.5 ng/mL
half-life ([9]; oral, 300 mg, single dose 300 mg, median): 35.5 h
Tmax ([9]; oral, 300 mg, single dose 300 mg, median, read-out: tmax): 2 h
AUC ([9]; oral, multiple dose 30 mg): 74.2 ng·h/mL
AUC ([9]; oral, multiple dose 100 mg): 364 ng·h/mL
AUC ([9]; oral, multiple dose 300 mg): 1030 ng·h/mL
AUC(0-inf) ([9]; oral, single dose 30 mg): 56.9 ng·h/mL
AUC(0-t) ([9]; oral, single dose 30 mg): 33 ng·h/mL
AUC(0-inf) ([9]; oral, single dose 100 mg): 245 ng·h/mL
AUC(0-t) ([9]; oral, single dose 100 mg): 188 ng·h/mL
AUC(0-inf) ([9]; oral, single dose 300 mg): 485 ng·h/mL
AUC(0-t) ([9]; oral, single dose 300 mg): 425 ng·h/mL
Tmax ([9]; po, single and multiple oral doses, read-out: time of maximum plasma concentrations (median tmax)): 2 to 5 h
dose linearity of pharmacokinetics ([9]; single and multiple dosing, 30 to 300 mg, healthy subjects): dose-linear pharmacokinetics
SMILES: CC[C@@H]1[C@@H]2CN(C(=O)[C@H](C(C)(C)C)NC(=O)O[C@@H]3C[C@H]3CCCCC(F)(F)c3nc4ccc(OC)cc4nc3O2)[C@@H]1C(=O)N[C@]1(C(=O)NS(=O)(=O)C2(C)CC2)C[C@H]1C(F)F [voxilaprevir, Form VI]

— patent US10912814B2, “Combination formulation of three antiviral compounds” (priority 2016, dated 2021)
